Laboratory results reported in PMC3285443 (European Journal of Pharmaceutical Sciences, 2010).
≈ marks a conversion by molar mass, not a printed value. Read-outs that look alike come from different tables or passages of the source.

Experiments:
[1] = experimental LogP determination; settings: for logP at 24 h: 1-octanol / 0.1 M sodium phosphate buffer, pH 7.4
[2] = compartmental pharmacokinetics after i.v. administration in dogs; settings: female, Labrador retriever, dog, plasma, iv
[3] = compartmental pharmacokinetics after oral gavage; settings: female, Labrador retriever, dog, plasma, 0.3 mg/kg
[4] = cassette-dosing oral pharmacokinetic screening in dogs; settings: dog; for AUC / half-life: female, Labrador retriever, plasma, po, 0.3 mg/kg; for C24/IC50 (ratio of blood concentration over the IC50 with recombinant human sEH after 24 hour): n=1
in vivo [5] = settings: female, Labrador retriever, dog, iv
in vivo [6] = settings: female, Labrador retriever, dog, po, 0.3 mg/kg
physchem = settings: 25 °C, pH 7.4, aqueous buffer, thermodynamic from solid
[7] = water solubility determination; settings: 0.1 M sodium phosphate buffer (pH 7.4), 25°C, 24 hours
[8] = molecular target: T1, recombinant human soluble epoxide hydrolase (Homo sapiens, UniProt P34913); assay: fluorescent assay with CMNPC substrate, recombinant human sEH; format: biochemical
T1 sequence (P34913 1-555): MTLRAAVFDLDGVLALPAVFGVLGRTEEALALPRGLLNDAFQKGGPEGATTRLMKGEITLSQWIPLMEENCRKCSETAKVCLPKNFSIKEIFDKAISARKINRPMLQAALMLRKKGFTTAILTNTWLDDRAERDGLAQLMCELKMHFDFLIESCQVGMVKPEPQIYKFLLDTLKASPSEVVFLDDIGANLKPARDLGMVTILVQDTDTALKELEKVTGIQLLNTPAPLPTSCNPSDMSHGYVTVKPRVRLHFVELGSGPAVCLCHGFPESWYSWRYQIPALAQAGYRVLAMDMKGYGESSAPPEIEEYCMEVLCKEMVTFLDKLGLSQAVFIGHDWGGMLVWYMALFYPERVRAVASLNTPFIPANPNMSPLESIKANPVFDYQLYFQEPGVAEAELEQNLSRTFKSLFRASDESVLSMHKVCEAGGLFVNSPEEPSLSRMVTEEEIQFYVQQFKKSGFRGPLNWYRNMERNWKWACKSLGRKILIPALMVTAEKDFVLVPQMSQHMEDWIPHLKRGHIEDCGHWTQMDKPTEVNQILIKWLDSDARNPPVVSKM

[9] = molecular target: human sEH (human liver cytosol) (Homo sapiens, UniProt P34913); assay: LC/MS assay with 14,15-EET substrate, human liver cytosol; format: biochemical
recombinant murine sEH = molecular target: T2, recombinant murine sEH (Mus musculus, UniProt P34914); assay: fluorescent assay with CMNPC substrate, recombinant mouse sEH; format: biochemical
T2 sequence (P34914 1-554): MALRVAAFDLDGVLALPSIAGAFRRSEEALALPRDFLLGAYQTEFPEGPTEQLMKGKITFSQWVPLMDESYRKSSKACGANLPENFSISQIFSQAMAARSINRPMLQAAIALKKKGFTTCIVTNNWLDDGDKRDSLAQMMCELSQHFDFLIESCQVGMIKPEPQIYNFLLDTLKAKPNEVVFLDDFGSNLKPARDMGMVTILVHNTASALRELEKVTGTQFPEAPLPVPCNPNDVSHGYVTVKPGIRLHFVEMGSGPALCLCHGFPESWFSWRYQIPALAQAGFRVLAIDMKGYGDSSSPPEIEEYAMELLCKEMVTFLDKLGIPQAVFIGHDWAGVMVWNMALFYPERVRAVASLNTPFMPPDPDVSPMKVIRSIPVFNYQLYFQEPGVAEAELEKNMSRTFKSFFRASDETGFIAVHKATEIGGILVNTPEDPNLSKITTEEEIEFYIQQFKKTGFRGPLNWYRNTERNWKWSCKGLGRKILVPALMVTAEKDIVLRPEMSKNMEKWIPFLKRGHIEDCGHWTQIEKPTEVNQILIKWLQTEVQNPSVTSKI

human recombinant sEH = molecular target: T3, human recombinant sEH (Homo sapiens, UniProt P34913); assay: radioactive t-DPPO assay, purified recombinant human sEH; format: biochemical
T3 sequence (P34913 1-555): T1 sequence (P34913 1-555)

recombinant rat sEH = molecular target: T4, recombinant rat sEH (Rattus norvegicus, UniProt P80299); assay: fluorescent assay with CMNPC substrate, recombinant rat sEH; format: biochemical
T4 sequence (P80299 1-554): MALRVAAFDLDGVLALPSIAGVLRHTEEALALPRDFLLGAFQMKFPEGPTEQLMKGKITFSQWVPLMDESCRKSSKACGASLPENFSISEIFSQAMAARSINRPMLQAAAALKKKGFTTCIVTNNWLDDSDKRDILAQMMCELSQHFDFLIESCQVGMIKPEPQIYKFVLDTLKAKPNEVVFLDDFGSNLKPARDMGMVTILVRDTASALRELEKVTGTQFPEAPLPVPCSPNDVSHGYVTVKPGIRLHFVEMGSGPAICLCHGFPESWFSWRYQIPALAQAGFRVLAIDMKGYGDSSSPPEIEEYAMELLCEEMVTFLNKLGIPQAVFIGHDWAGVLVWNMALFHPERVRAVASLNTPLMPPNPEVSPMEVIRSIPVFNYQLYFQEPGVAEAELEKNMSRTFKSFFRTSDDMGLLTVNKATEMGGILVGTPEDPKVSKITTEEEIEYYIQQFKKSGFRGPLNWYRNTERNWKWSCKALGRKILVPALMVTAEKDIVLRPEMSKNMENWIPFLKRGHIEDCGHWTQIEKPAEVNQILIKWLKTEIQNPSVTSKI

[10] = molecular target: T5, purified human recombinant sEH (Homo sapiens, UniProt P34913); format: biochemical
T5 sequence (P34913 1-555): T1 sequence (P34913 1-555)

logP at 24 h [1] | Compound | AUC [4] [µM·h] | half-life [4] [h] | IC50 (recombinant murine sEH) [nM] | IC50 (human recombinant sEH) [nM] | IC50 (recombinant rat sEH) [nM] | C24/IC50 (ratio of blood concentration over the IC50 with recombinant human sEH after 24 hour) ([4]; oral 0.3 mg/kg cassette dosing) | also measured
3 | O=C(O)CCCCCCCCCCCNC(=O)NC12CC3CC(CC(C3)C1)C2 [compound 1, 12-(3-adamantane-1-yl-ureido)-dodecanoic acid] | – | – | – | – | – | – | –
2.6 | CCOCCOCCOCCCCCNC(=O)NC12CC3CC(CC(C3)C1)C2 [compound 3, 1-adamantan-1-yl-3-{5-[2-(2-ethoxyethoxy)ethoxy]pentyl}urea] | 0.04 | 1 | – | – | – | – | clearance [2]: 96.7 mL/min/kg; half-life [2]: 9.6 ± 1.8 min; AUC [3]: 0.03 µM·h; Cmax [3]: 20 ± 10 nM; Tmax [3]: 0.2 ± 0.1 h; half-life [3]: 1.7 ± 1 h
– | CC(=O)N1CCC(NC(=O)NC23CC4CC(CC(C4)C2)C3)CC1 [compound 14, N-(1-acetylpiperidin-4-yl)-N’-(adamant-1-yl) urea] | – | – | – | – | – | – | clearance (in vivo [5]): 40 mL/min/kg; half-life (in vivo [5]): 0.6 ± 0.1 h; Cmax (in vivo [6]): 80 ± 30 nM; Tmax (in vivo [6]): 1 ± 0.7 h; half-life (in vivo [6]): 1.7 ± 0.4 h; solubility at 24 h (physchem): 490 µg/mL (≈ 1530 µM)
– | CC(=O)N1CCC(NC(=O)Nc2ccc(OC(F)(F)F)cc2)CC1 [compound 24] | – | – | – | – | – | – | Water solubility [7]: 51 µg/mL; LogP (pH 7.4) ([1]; octanol / 0.1 M sodium phosphate buffer at pH 7.4): 2.3; T1/2 (terminal half-life) ([4]; oral 0.3 mg/kg cassette dosing, n=1, non-compartmental): >24 h
– | CC(=O)N1CCC(NC(=O)NC2CCCCCC2)CC1 [compound 31, 1-cycloheptyl-3-(1-acetylpiperidin-4-yl) urea] | 3.67 | 5.2 | 12 | 300 | 7 | 1.0 | IC50 ([8]; IC50, CMNPC, Human): 28 nM
– | COC(=O)c1ccc(NC(=O)NC23CC4CC(CC(C4)C2)C3)cc1O [compound 62, 4-(3-adamantane-1-yl-ureido)-2-hydroxyl-benzoic acid methyl ester] | 0.21 | – | 10 | 6 | 8 | 0.7 | IC50 [8]: 3 nM
– | O=C(Nc1ccc(Cl)cc1)Nc1ccc(Cl)c(Cl)c1 [compound 74, triclocarban, reference compound] | 0.03 | 0.5 | – | – | – | <0.1 | –

Compound | logP at 24 h [1] | AUC [4] [µM·h] | half-life [4] [h] | IC50 (recombinant murine sEH) [nM] | IC50 (human recombinant sEH) [nM] | IC50 (recombinant rat sEH) [nM] | C24/IC50 (ratio of blood concentration over the IC50 with recombinant human sEH after 24 hour) ([4]; oral 0.3 mg/kg cassette dosing) | also measured
CS(=O)(=O)N1CCC(NC(=O)Nc2ccc(OC(F)(F)F)cc2)CC1 [compound 27, 1-(1-methylsulfonyl-piperidin-4-yl)-3-(4-trifluoromethoxy-phenyl)-urea] | 1.9 | 28.3 | > 24 | 5 | 26 | 9 | – | IC50 ([8]; IC50, CMNPC, Human, purified recombinant enzyme at […]): 3 nM; IC50 [9]: 26 nM; IC50 ([10]; IC50 on human sEH in buffer, buffer): 150 nM; IC50 ([10]; IC50 on human sEH incubated in sEH depleted canine liver cytosol, sEH depleted canine liver cytosol supplemented with purified human recombinant sEH): 120 nM
